Laboratory results from a compilation of properties of binary mixtures (doi:10.1016/j.jiec.2013.02.010).

Assay: xn = mol fraction of the nth substance listed
Conditions: 101 kPa

CCO + CCCC[n+]1ccn(C)c1.[Cl-]
x1 = 1
Conditions | viscosity [mPa·s]
293.15 K | 1.19
298.15 K | 1.08
308.15 K | 0.89

O + CCCC[n+]1ccn(C)c1.[Cl-]
x1 = 1
Conditions | viscosity [mPa·s]
293.15 K | 1.01
298.15 K | 0.89
303.15 K | 0.8
308.15 K | 0.72

CCCC[n+]1ccn(C)c1.[Cl-] + O
Conditions | electrical conductivity, 298.15 K [S/m] | viscosity, 293.15 K [mPa·s] | viscosity, 298.15 K [mPa·s] | viscosity, 303.15 K [mPa·s] | viscosity, 308.15 K [mPa·s]
x2 = 0.4982 | 0.32 | – | 163 | 118 | –
x2 = 0.5535 | 0.502 | 141 | 105 | 83 | 61.6
x2 = 0.6132 | 0.844 | 86 | 64.5 | 50.4 | 38.7
x2 = 0.7033 | 1.54 | 39.4 | 30.4 | 24.5 | 20
x2 = 0.8034 | – | 15.5 | – | 10.5 | 8.69
x2 = 0.8999 | 5.31 | 5.3 | 4.38 | – | 3.3
x2 = 0.9502 | 5.98 | – | 2.22 | 1.94 | 1.74
x2 = 0.975 | 4.98 | – | 1.52 | – | –

CN(C)C=O + CCCC[n+]1ccn(C)c1.[Cl-]
x1 = 1
Conditions | viscosity [mPa·s]
293.15 K | 0.86
298.15 K | 0.8
303.15 K | 0.78
308.15 K | 0.73

CCCC[n+]1ccn(C)c1.[Cl-] + CC#N
Conditions | electrical conductivity [S/m] | viscosity [mPa·s]
293.15 K, x2 = 0.5028 | – | 111
293.15 K, x2 = 0.5548 | – | 60.5
293.15 K, x2 = 0.6007 | – | 38.5
293.15 K, x2 = 0.7003 | – | 11.9
293.15 K, x2 = 0.8 | – | 3.9
293.15 K, x2 = 0.9002 | – | 1.17
293.15 K, x2 = 0.9499 | – | 0.69
298.15 K, x2 = 0.502 | 0.29 | 76
298.15 K, x2 = 0.5483 | 0.4 | 53.6
298.15 K, x2 = 0.6038 | 0.578 | 28.4
298.15 K, x2 = 0.7021 | 1.03 | 10
298.15 K, x2 = 0.9002 | 1.9 | 1.12
298.15 K, x2 = 0.9499 | 1.7 | 0.63
298.15 K, x2 = 0.975 | 1.3 | 0.46
303.15 K, x2 = 0.5065 | – | 63.1
303.15 K, x2 = 0.5524 | – | 40.2
303.15 K, x2 = 0.6025 | – | 25.5
303.15 K, x2 = 0.7003 | – | 9.3
303.15 K, x2 = 0.8007 | – | 3.4
303.15 K, x2 = 0.9002 | – | 1.06
303.15 K, x2 = 0.9499 | – | 0.57
308.15 K, x2 = 0.5028 | – | 55.4
308.15 K, x2 = 0.5548 | – | 33.3
308.15 K, x2 = 0.6007 | – | 22
308.15 K, x2 = 0.7003 | – | 8.5
308.15 K, x2 = 0.8 | – | 3.04
308.15 K, x2 = 0.9002 | – | 1.02
308.15 K, x2 = 0.9499 | – | 0.53

CCCC[n+]1ccn(C)c1.[Cl-] + CN(C)C=O
Conditions | electrical conductivity [S/m] | viscosity [mPa·s]
293.15 K, x2 = 0.5025 | – | 77
293.15 K, x2 = 0.5565 | – | 49.1
293.15 K, x2 = 0.6003 | – | 33.9
293.15 K, x2 = 0.6996 | – | 16.9
293.15 K, x2 = 0.8014 | – | 5.1
293.15 K, x2 = 0.95 | – | 1.32
298.15 K, x2 = 0.501 | 0.218 | 64
298.15 K, x2 = 0.6134 | 0.439 | 24
298.15 K, x2 = 0.6994 | 0.592 | 11.4
298.15 K, x2 = 0.8017 | 0.857 | 4.44
298.15 K, x2 = 0.9 | 0.922 | 1.88
298.15 K, x2 = 0.9502 | 0.766 | 1.21
303.15 K, x2 = 0.552 | – | 34.5
303.15 K, x2 = 0.7005 | – | 9.5
303.15 K, x2 = 0.9 | – | 1.73
308.15 K, x2 = 0.5007 | – | 39.9
308.15 K, x2 = 0.5564 | – | 25.5
308.15 K, x2 = 0.6001 | – | 17.5
308.15 K, x2 = 0.7 | – | 7.8
308.15 K, x2 = 0.95 | – | 1.04

CCCC[n+]1ccn(C)c1.[Cl-] + CO
Conditions | electrical conductivity [S/m] | viscosity [mPa·s]
293.15 K, x2 = 0.6026 | – | 23.2
293.15 K, x2 = 0.7002 | – | 8.4
293.15 K, x2 = 0.8008 | – | 3.41
293.15 K, x2 = 0.8999 | – | 1.63
293.15 K, x2 = 0.95 | – | 0.95
298.15 K, x2 = 0.5213 | 0.632 | 37.6
298.15 K, x2 = 0.5458 | 0.777 | 32.5
298.15 K, x2 = 0.5925 | 1.08 | 20.4
298.15 K, x2 = 0.7996 | 3.46 | 3.25
298.15 K, x2 = 0.9007 | 4.08 | 1.38
298.15 K, x2 = 0.95 | 3.32 | 0.88
298.15 K, x2 = 0.975 | 2.24 | 0.68
303.15 K, x2 = 0.5173 | – | 36.4
303.15 K, x2 = 0.6044 | – | 16
303.15 K, x2 = 0.7993 | – | 2.86
303.15 K, x2 = 0.8999 | – | 1.25
303.15 K, x2 = 0.95 | – | 0.85
308.15 K, x2 = 0.5001 | – | 34.5
308.15 K, x2 = 0.5458 | – | 23.7
308.15 K, x2 = 0.6026 | – | 14.9
308.15 K, x2 = 0.7001 | – | 6.6
308.15 K, x2 = 0.8008 | – | 2.76

CC#N + CCCC[n+]1ccn(C)c1.[Cl-]
x1 = 1
Conditions | viscosity [mPa·s]
293.15 K | 0.36
298.15 K | 0.35
303.15 K | 0.32

CCCC[n+]1ccn(C)c1.[Cl-] + CCO
Conditions | electrical conductivity, 298.15 K [S/m] | viscosity, 293.15 K [mPa·s] | viscosity, 298.15 K [mPa·s] | viscosity, 303.15 K [mPa·s] | viscosity, 308.15 K [mPa·s]
x2 = 0.4991 | 0.326 | 75 | 61.4 | – | 38.3
x2 = 0.5533 | 0.483 | 47.9 | 37.5 | 31.1 | 25.6
x2 = 0.6011 | 0.648 | 30.6 | 23.8 | – | 17
x2 = 0.7003 | – | 12.1 | – | 9.2 | 8.2
x2 = 0.8002 | – | 5.23 | – | 4.25 | 3.84
x2 = 0.9 | 1.38 | 2.46 | 2.24 | 2.06 | 1.92
x2 = 0.9501 | 0.927 | – | 1.62 | – | 1.35
x2 = 0.975 | 0.52 | – | 1.29 | – | –

CO + CCCC[n+]1ccn(C)c1.[Cl-]
x1 = 1
Conditions | viscosity [mPa·s]
293.15 K | 0.61
298.15 K | 0.55
303.15 K | 0.51
